ChEMBL document CHEMBL1201862, “PubChem BioAssay data set” (2004)
Calls of active or inactive are those of the source.

Legend:
[1] = target: ADP-ribosylation factor GTPase-activating protein 1 (Rattus norvegicus, UniProt Q62848); assay: Fluorescence polarization-based biochemical high throughput dose response screening assay to identify inhibitors of ADP-ribosylation factor GTPase activating protein 1 (ARFGAP1).; format: functional
[2] = target: T1, Methionyl-tRNA synthetase, putative (Trypanosoma brucei brucei, UniProt Q38C91); format: functional, Trypanosoma brucei brucei strain 927/4 GUTat10.1
[3] = Counterscreen for inhibitors of Trypanosoma brucei methionyl tRNA synthetase (MetRS): Luminescence-based cell-based high throughput dose response assay to identify compounds that are cytotoxic to Jurkat human T lymphocyte cells.; format: functional
[4] = target: T1, Methionyl-tRNA synthetase, putative; format: functional, Trypanosoma brucei brucei strain 927/4 GUTat10.1; remark: listed apart in the source
Fatty acid synthase [5] = target: T2, Fatty acid synthase (Homo sapiens, UniProt P49327); assay: FAS thioesterase domain inhibitors, dose response, biochemical, endpoint fluorescence intensity, uHTS hits (AID 624327); format: functional;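 note: fluorescence from hydrolysis of an O-methyl fluorescein acyl ester substrate by the enzyme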
Fatty acid synthase [6] = target: T2, Fatty acid synthase; assay: FAS thioesterase domain inhibitors, dose response, biochemical, kinetic fluorescence intensity (AID 624326); format: functional;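 note: rate of fluorescence rise from hydrolysis of a fluorogenic O-methyl fluorescein ester substrate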
Beta Lactamase [7] = target: T3, Beta Lactamase (Pseudomonas aeruginosa, UniProt Q932Y6);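 note: confirmatory high-throughput screen measuring VIM-2 metallo-beta-lactamase inhibition by epi-absorbance in dose response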
[8] = tested on: Streptococcus sp. 'group A'; assay: growth inhibition of control SK(-) GAS strain, dose response, counter-screen for streptokinase expression inhibitor project, luminescence, kanamycin, BacTiterGlo, confirmation (AID 1900); format: functional, organism-based
Streptokinase A = target: T4, Streptokinase A (Streptococcus pyogenes serotype M1, UniProt P10520); assay: S. pyogenes streptokinase expression inhibitors, potency, dose response, plasminogen activation absorbance, OD405 (AID 1914); format: functional, Streptococcus pyogenes M1 GAS;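 note: secreted streptokinase activity via plasminogen activation per viability signal from cell pellet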
T4 sequence (P10520 whole entry): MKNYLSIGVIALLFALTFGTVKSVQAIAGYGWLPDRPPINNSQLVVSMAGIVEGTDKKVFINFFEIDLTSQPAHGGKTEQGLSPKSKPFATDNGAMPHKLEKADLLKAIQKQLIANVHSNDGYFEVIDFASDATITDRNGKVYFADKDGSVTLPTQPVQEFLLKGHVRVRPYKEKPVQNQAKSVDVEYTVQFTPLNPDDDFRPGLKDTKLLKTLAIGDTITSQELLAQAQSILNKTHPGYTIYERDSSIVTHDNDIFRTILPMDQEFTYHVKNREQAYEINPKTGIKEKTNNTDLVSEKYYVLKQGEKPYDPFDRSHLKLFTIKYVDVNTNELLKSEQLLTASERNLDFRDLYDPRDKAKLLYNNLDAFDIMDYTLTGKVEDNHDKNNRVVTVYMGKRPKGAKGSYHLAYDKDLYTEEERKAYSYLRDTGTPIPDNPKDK

Beta-lactamase [9] = target: Beta-lactamase (Pseudomonas aeruginosa, UniProt Q79MP6);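 note: biochemical dose-response test of metallo-beta-lactamase enzyme inhibition, read out by epi-absorbance; purified recombinant IMP-1 metallo-beta-lactamase with nitrocefin as substrate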
Beta-lactamase [10] = target: Beta-lactamase (Salmonella choleraesuis (strain SC-B67), UniProt Q5J463)
Streptococcus = assay: Group A Streptococcus viability loss, dose response, counter-screen for streptokinase expression inhibitor project, luminescence, BacTiterGlo (AID 1915); format: functional, organism-based;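 note: potency for reduction of bacterial viability or growth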
[11] = target: Voltage-dependent T-type calcium channel subunit alpha-1H (Homo sapiens, UniProt O95180); format: functional;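 note: channel activity triggered by adding a high calcium stimulation buffer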
ORF 73 = target: T5, ORF 73 (Human herpesvirus 8, UniProt O40947); assay: inhibitors of C-LANA binding to LBS DNA, dose response, biochemical, fluorescence polarization, cherry-picked samples (AID 504725); parameters: species or system Human gammaherpesvirus 8;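 note: fluorescence polarization of a labeled DNA duplex reporting LANA DNA binding; potency is for inhibitors that block LANA binding to the DNA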
T5 sequence (O40947 whole entry): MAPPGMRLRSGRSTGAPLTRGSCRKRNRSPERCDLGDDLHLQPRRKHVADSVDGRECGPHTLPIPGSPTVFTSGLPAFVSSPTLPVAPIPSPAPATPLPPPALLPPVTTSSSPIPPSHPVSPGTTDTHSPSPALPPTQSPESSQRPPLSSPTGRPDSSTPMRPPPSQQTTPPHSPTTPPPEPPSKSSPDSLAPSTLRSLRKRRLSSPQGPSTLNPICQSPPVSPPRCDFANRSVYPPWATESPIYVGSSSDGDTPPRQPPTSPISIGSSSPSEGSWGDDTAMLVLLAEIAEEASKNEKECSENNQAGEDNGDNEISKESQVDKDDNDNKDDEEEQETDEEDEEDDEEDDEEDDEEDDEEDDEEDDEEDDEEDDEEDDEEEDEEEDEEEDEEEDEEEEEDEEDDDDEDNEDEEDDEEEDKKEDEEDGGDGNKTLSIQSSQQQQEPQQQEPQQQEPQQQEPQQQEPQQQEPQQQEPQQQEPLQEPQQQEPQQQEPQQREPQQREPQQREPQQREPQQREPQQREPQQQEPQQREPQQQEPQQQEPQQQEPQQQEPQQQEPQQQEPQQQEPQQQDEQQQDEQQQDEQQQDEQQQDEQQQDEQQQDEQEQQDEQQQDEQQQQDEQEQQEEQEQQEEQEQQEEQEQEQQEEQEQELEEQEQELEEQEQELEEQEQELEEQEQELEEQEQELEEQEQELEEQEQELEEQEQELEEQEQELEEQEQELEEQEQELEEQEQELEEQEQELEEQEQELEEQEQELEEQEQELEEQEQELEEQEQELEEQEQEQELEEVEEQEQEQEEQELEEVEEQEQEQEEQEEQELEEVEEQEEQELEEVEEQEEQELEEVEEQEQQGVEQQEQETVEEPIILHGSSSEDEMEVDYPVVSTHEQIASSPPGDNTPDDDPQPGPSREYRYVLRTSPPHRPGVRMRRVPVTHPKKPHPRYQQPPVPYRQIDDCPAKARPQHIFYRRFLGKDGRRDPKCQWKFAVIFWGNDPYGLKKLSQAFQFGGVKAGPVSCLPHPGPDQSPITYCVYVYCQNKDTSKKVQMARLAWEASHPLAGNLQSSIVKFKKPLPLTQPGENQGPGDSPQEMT

CHO = assay: cytotoxicity in TLR9-MyD88 CHO cells, dose response, cytotoxicity control for TLR9-MyD88 binding inhibitor project, cell-based, luminescence (AID 588339); format: functional, hamster; conditions: Cricetulus griseus;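 note: CHO cells stably coexpressing TLR9 and MyD88 fusions from primary screen; compound exposure lasted 48 hours before viability readout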
[12] = target: UDP-galactopyranose mutase (Mycobacterium tuberculosis, UniProt P9WIQ1); assay: Inhibitors of Mycobacterium tuberculosis UDP-galactopyranose mutase (UGM) enzyme Measured in Biochemical System Using Plate Reader - 2105-02_Inhibitor_Dose_CherryPick_Activity. [Related pubchem assays (depositor defined):AID504439]
Beta Lactamase [13] = target: T3, Beta Lactamase; assay: beta-lactamase reporter inhibitor potency, dose response, artefact control for TLR9-MyD88 binding inhibitor project, BLA reporter cells, FRET fluorescence (AID 588341); format: cell-based;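 note: cell based assay in CHO-K1 cells stably expressing beta-lactamase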
[14] = target: Tyrosine-protein phosphatase non-receptor type 11 (Homo sapiens, UniProt Q06124); assay: SHP2 phosphatase inhibition, dose response, selectivity assay for STEP inhibitor project, biochemical (AID 602367); format: functional; conditions: read-out: IC50_Mean
[15] = target: 26S proteasome non-ATPase regulatory subunit 14 (Homo sapiens, UniProt O00487); assay: inhibition of proteasome subunit RPN11 – biochemical, fluorescence polarization, uHTS hits, confirmation (AID 602368); format: functional
[16] = target: Tyrosine-protein phosphatase non-receptor type 5 (Homo sapiens, UniProt P54829); assay: STEP phosphatase inhibitors, confirmation, biochemical, fluorescence intensity, uHTS hits (AID 602372); format: functional; conditions: read-out: IC50_Mean
[17] = target: 72 kDa type IV collagenase (Homo sapiens, UniProt P08253); assay: Dose Response validation of uHTS RPN11 inhibitor hits using a MMP-2 Fluorescence assay.; format: functional
[18] = target: Dual specificity protein phosphatase 3 (Homo sapiens, UniProt P51452); assay: VHR phosphatase inhibition, dose response, selectivity assay for STEP inhibitor project, biochemical (AID 602374); format: functional; conditions: read-out: IC50_Mean
Prothrombin = Prothrombin (Bos taurus, UniProt P00735); assay: thrombin inhibition, dose response, biochemical, fluorescence polarization, uHTS hits (AID 602369); format: functional
[19] = target: T6, Tyrosine-protein phosphatase non-receptor type 22 (Homo sapiens, UniProt Q9Y2R2); assay: PTPN22 phosphatase inhibition, dose response, selectivity assay for STEP inhibitor project, biochemical (AID 624241); format: functional
T6 sequence (Q9Y2R2 whole entry): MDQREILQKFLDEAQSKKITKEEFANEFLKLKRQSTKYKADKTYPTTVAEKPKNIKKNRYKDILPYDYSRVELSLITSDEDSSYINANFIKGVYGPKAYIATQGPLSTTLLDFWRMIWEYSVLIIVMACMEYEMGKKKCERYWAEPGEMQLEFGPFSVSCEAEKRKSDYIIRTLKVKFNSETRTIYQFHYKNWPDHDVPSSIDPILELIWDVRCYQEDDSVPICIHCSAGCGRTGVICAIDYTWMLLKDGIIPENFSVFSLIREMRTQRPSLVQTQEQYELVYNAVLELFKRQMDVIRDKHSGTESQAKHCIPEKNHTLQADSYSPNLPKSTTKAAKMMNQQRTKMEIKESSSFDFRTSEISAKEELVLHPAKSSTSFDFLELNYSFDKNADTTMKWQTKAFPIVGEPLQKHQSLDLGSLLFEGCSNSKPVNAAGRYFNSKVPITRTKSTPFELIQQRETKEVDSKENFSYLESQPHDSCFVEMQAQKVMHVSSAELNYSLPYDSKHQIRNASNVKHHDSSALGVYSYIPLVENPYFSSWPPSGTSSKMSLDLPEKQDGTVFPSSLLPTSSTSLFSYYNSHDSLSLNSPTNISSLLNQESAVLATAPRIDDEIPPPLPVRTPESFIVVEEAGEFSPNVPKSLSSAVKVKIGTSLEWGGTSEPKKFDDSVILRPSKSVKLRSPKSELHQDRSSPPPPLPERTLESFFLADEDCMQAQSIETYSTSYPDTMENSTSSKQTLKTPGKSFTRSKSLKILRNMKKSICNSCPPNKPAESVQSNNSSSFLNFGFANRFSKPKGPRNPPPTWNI

[20] = HEK293T cytotoxicity, dose response, cytotoxicity control for miR-122 modulator project, cell-based, inhibitor set, cherry-pick, set 2 (AID 720697); format: functional
[21] = HEK293T cytotoxicity, dose response, cytotoxicity control for miR-122 modulator project, cell-based, activator set, cherry-pick (AID 720690); format: functional;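 note: HEK293T human cells scored for general mammalian cytotoxicity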

T1 sequence (Q38C91 whole entry): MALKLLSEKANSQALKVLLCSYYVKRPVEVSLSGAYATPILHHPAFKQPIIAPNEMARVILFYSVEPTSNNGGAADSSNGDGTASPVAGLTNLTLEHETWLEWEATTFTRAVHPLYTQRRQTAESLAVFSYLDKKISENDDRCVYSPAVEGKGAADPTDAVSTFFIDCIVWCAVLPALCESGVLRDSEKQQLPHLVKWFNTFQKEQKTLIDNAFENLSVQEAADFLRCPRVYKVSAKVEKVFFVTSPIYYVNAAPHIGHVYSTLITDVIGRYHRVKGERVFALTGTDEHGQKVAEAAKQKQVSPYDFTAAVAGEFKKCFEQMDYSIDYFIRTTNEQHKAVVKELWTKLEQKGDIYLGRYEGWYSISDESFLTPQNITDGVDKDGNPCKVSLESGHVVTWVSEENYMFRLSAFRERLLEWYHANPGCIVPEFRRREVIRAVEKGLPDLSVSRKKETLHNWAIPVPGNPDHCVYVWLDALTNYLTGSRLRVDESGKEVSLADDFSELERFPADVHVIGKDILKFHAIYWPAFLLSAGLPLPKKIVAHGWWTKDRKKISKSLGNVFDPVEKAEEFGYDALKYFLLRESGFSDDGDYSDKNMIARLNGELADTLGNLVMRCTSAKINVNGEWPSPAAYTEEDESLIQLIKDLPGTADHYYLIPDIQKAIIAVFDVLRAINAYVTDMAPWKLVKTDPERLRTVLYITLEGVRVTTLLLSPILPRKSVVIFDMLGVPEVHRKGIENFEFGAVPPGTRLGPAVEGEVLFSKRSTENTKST
T3 sequence (Q932Y6 whole entry): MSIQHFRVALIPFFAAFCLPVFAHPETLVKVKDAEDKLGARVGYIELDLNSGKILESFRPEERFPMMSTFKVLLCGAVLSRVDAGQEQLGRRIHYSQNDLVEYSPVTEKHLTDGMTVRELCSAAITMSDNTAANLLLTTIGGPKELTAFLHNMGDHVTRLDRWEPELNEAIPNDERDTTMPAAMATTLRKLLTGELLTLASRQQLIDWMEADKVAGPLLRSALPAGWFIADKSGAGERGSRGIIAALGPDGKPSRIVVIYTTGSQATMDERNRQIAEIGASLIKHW
T2 sequence (P49327 whole entry, the tested form may be a part): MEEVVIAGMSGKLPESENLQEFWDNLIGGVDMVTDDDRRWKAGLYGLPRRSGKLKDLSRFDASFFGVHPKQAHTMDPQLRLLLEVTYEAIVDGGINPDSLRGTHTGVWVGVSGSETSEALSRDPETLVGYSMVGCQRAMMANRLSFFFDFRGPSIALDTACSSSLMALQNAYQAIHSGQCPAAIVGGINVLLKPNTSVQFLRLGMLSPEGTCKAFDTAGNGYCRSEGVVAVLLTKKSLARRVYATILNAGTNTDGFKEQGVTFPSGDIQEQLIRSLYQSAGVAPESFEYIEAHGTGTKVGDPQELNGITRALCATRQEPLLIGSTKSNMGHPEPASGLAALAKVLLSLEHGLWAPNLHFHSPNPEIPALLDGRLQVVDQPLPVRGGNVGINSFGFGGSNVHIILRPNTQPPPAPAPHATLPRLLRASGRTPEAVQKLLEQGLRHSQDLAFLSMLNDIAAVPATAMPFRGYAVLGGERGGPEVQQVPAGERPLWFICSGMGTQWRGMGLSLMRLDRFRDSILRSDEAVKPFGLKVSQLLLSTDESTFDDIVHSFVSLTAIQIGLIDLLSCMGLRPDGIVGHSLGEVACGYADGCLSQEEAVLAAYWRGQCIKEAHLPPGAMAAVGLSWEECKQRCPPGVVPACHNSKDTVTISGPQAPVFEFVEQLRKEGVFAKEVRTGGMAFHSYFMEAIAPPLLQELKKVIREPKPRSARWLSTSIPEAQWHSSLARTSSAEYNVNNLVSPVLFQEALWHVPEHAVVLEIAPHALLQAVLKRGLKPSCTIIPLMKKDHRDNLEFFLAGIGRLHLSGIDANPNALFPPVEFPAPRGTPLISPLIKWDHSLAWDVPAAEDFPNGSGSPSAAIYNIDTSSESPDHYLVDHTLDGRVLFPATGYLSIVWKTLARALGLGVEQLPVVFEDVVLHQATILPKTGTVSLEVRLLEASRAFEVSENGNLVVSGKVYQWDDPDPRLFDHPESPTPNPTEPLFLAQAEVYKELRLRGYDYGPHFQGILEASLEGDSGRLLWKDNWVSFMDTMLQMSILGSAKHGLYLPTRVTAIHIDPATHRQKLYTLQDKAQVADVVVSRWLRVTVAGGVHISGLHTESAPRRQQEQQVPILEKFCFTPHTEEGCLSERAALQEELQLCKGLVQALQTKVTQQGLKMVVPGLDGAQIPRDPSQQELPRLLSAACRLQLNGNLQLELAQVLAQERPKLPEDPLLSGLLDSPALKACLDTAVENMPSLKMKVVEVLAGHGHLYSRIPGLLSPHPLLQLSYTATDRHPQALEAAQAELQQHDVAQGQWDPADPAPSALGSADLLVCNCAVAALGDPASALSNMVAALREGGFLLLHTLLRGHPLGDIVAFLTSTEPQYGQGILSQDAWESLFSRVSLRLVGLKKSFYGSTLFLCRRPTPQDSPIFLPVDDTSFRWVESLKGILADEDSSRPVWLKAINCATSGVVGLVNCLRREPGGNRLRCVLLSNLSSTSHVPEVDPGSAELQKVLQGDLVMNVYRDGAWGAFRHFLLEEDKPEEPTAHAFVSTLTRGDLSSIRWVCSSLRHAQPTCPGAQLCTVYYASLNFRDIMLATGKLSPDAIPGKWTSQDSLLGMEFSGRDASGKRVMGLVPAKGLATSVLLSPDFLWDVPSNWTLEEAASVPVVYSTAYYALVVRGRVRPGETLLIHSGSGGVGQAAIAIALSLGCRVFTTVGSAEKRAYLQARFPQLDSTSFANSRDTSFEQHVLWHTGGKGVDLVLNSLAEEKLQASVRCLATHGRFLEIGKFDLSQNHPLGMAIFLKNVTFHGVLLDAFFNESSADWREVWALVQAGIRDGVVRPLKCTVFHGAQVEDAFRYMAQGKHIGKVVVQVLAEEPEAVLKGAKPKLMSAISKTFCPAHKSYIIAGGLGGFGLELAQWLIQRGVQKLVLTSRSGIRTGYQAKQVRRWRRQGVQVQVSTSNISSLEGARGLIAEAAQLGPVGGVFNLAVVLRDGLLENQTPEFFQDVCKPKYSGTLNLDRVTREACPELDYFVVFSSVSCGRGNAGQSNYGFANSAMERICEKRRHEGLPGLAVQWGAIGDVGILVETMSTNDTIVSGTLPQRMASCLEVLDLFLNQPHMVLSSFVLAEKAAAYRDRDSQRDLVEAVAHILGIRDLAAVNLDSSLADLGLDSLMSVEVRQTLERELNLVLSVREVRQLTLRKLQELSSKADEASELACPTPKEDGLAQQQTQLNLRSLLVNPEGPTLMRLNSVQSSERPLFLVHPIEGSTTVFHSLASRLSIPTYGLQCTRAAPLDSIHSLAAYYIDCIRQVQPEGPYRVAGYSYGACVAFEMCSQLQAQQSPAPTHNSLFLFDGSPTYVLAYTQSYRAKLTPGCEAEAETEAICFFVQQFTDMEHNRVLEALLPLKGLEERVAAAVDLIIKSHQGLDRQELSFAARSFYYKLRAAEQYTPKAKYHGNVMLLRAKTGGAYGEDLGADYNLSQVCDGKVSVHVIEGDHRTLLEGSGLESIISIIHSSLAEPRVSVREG
Chain of 26S proteasome non-ATPase regulatory subunit 14 (O00487 whole entry): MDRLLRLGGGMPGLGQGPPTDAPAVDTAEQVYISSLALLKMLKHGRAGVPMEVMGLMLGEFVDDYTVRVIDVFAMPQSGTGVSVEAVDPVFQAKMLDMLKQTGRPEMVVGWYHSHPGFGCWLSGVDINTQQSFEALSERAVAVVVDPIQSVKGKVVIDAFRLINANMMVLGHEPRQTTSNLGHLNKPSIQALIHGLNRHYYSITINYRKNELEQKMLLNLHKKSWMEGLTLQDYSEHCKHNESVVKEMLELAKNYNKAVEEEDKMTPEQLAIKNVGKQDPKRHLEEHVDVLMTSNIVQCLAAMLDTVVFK
Chain of Tyrosine-protein phosphatase non-receptor type 5 (P54829 whole entry): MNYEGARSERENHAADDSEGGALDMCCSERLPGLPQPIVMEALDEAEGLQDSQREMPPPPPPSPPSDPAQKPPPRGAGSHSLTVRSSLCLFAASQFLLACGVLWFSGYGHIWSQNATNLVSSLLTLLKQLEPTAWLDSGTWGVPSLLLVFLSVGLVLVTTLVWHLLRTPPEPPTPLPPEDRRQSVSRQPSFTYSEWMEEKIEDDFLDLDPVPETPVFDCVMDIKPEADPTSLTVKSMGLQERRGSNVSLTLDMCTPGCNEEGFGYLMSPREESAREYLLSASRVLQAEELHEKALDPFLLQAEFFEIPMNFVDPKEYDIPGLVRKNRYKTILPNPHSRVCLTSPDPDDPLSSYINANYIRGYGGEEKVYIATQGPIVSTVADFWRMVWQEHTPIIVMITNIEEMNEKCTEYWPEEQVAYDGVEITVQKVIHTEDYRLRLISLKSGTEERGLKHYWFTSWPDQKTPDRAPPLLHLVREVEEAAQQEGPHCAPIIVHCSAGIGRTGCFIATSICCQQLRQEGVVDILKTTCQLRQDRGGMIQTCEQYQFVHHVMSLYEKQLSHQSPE
Chain of Beta-lactamase (Salmonella choleraesuis (strain SC-B67), UniProt Q5J463) (Q5J463 whole entry): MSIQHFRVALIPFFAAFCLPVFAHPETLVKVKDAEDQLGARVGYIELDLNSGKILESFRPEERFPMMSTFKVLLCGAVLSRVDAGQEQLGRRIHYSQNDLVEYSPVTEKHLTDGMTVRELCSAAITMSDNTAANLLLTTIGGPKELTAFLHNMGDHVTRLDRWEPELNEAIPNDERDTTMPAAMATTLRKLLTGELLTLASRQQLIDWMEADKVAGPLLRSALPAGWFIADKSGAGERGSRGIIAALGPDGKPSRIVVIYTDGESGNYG
Chain of Beta-lactamase (Pseudomonas aeruginosa, UniProt Q79MP6) (Q79MP6 whole entry): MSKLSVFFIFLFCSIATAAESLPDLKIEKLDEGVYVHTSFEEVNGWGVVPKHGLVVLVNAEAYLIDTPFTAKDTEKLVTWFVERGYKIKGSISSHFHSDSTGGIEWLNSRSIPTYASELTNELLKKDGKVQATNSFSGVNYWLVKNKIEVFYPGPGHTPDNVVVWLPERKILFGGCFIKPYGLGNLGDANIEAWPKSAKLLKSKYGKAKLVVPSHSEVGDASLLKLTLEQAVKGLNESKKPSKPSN

Q: Which IC50 [1] does the source give for `Cc1nc(NCc2ccc(S(N)(=O)=O)cc2)c2c(C)c(C)sc2n1` here?
A: Its IC50 is 42.5 µM (inactive).

Q: What does the source list for `Cc1ccc(NC(=O)CN(C)C(=O)c2ccc(Cl)c([N+](=O)[O-])c2)cc1`?
A: IC50 [2]: 17.9 µM (inactive); IC50 [3]: 56.7 µM (inactive); IC50 [4]: 8.63 µM (active); IC50 (Fatty acid synthase [5]): 7.6 µM (active); IC50 (Fatty acid synthase [6]): 6.26 µM (active)

Q: For `CN1C(=O)/C(=N\CCc2ccccc2)c2c3ccccc3c(O)c3cccc1c23`, which IC50 (Beta Lactamase [7]) is on record?
A: The IC50 was 9.24 µM (active).

Q: And the EC50 [8]?
A: Its EC50 is 11.3 µM (active).

Q: What about the EC50 (Streptokinase A) of the same compound?
A: The EC50 was > 150 µM (not active).

Q: What about the IC50 (Beta-lactamase [9]) of the same compound?
A: The IC50 was 11.5 µM (inactive).

Q: And the IC50 (Beta-lactamase [10])?
A: The IC50 was 2.19 µM (active).

Q: And the EC50 (Streptococcus)?
A: Its EC50 is > 150 µM (not active).

Q: And the EC50 [11]?
A: The EC50 was 1.6 µM (active).

Q: And the AC50 (ORF 73)?
A: Its AC50 is 0.902 µM (active).

Q: And the IC50 (CHO)?
A: Its IC50 is > 49.8 µM (inactive).

Q: And the AC50 [12]?
A: Its AC50 is 0.73 µM (active).

Q: What about the IC50 (Beta Lactamase [13]) of the same compound?
A: Its IC50 is 5.98 µM (active).

Q: What does the source list for `COc1cc(Cl)cc(/C=N\NC(=O)c2ccc3c(c2)OCO3)c1O`?
A: IC50 [14]: 4.16 µM (active); IC50 [15]: 21.5 µM (active); IC50 [16]: 9.73 µM (active); IC50 [17]: > 100 µM (inactive); IC50 [18]: 5.02 µM (active); IC50 (Prothrombin): 65.6 µM (active); IC50 [19]: > 100 µM (inactive); AC50 [20]: 5.99 µM (active); AC50 [21]: 16.6 µM (active)
